Reference: patent US20180258381A1, “BIO-LAMINA BIOREACTORS AND METHODS OF MAKING AND USING THE SAME” (Oregon State University, priority 2015, published 2018)

Test system: M. trichosporium OB3b culture
Test: CP exposure of culture immobilized in alginate beads, sequencing batch reactors
Type: cell-based
Conditions: for MeOH Accumulation Efficiency (MeOH accumulation/CH4 consumed): initial 24 hours of incubation with CH4
Procedure: In some embodiments, M. trichosporium OB3b culture was immobilized in alginate beads. M. trichosporium OB3b culture expressing sMMO was harvested and suspended to a final density of 10 g cell protein/L in 2% alginate. The alginate/cell mixture was extruded through a syringe needle into 100 mM CaCl2 to crosslink the alginate matrix, forming stable beads. Beads were rinsed with dH2O and re-suspended in 1/10 strength (dilute) growth media. M. trichosporium OB3b culture prepared this way is ideal for experimental manipulation such as CH4 or MeOH rate determinations after inhibitor exposure because beads can be quickly rinsed to remove trace inhibitor. OB3b culture immobilized in alginate in this way maintained activity for >7 days.
A chemostat grown, sMMO expressing, M. trichosporium OB3b culture was immobilized in alginate beads, and exposed to CP for 2, 6, and 18 hours in the absence of CH4. After inhibition, the consumption of CH4 and accumulation of MeOH was monitored in the presence and absence of 20 mM formate in sequencing batch reactors (FIGS. 37A-37C). Alginate beads were rinsed, at 24 hour intervals, before suspension in fresh media plus CH4. There was no significant difference: i) in the rate of methane consumption in the treatments that were exposed to CP for 2, 6 or 18 h (p>0.5, 30-80 μmol CH4 consumed/d, Table 2); ii) in the efficiency of MeOH accumulation in any of the treatments (Table 2); and, in the effect of formate on MeOH accumulation (P>0.18) for any exposure time, probably due to lack of complete MDH inhibition (Table 3). It was also observed that MeOH accumulated to a greater degree during days 2 and 3 in treatments after 6 or 18 hours of CP exposure.

C1CC1 [CP, cyclopropane]
Rates of MeOH consumption, Post Exposure (CP exposure 2 h): 0.4 (0.0) μmol/h/mg protein | MeOH Accumulation Efficiency (MeOH accumulation/CH4 consumed) (CP exposure 2 h): 19 (4) % | Rates of MeOH consumption, Post Exposure (CP exposure 6 h): 0.6 (0.1) μmol/h/mg protein | MeOH Accumulation Efficiency (MeOH accumulation/CH4 consumed) (CP exposure 6 h): 43 (1) % | Rates of MeOH consumption, Post Exposure (CP exposure 18 h): 0.3 (0.1) μmol/h/mg protein | MeOH Accumulation Efficiency (MeOH accumulation/CH4 consumed) (CP exposure 18 h): 13 (1) % | rate of methane consumption (treatments exposed to CP for 2, 6 or 18 h): 30-80 μmol CH4 consumed/d
